From patent US20030186816A1, “Herbicide combinations comprising specific sulfonylureas” (Bayer CropScience GmbH, priority 2002, published 2003)

Assays:
Format in all cases: in vivo
Wheat = assay: Crop damage in outdoor trials; conditions: 750 g of AS/ha, scored approx. 4-6 weeks after application, trial with Avena ludoviciana
Description: (§1) Herbicidal Action (Outdoor Trials)
(§2) The seeds or rhizome pieces of typical harmful plants were planted and grown under natural outdoor conditions. After the harmful plants had emerged, they were treated, as a rule at the 2- to 4-leaf stage, with various dosages of the compositions according to the invention at a water application rate of 100 to 400 l/ha (converted).
(§3) After the treatment (approx. 4-6 weeks after application), the herbidical activity of the active compounds or active compound mixtures was scored visually by comparing the treated plots with the untreated control plots. Damage and development of all above-ground parts of the plants was recorded. Scoring was done on a percentage scale (100% action=all plants dead; 50% action=50% of the plants and green plant parts dead; 0% action=no discernible action=like control plot). The score figures of in each case 4 plots were averaged. The results are listed in the tables below, where the activity measured for the independent use of the active compounds (A+B) and C) is stated in brackets.

Avena ludoviciana = assay: Herbicidal action (outdoor trials); conditions: 750 g of AS/ha, scored approx. 4-6 weeks after application
Description: as §1, §2, §3

Winter wheat = assay: Crop damage in outdoor trials
Description: as §1, §2, §3

Papaver rhoeas = assay: Herbicidal action (outdoor trials); conditions: scored approx. 4-6 weeks after application
Description: as §1, §2, §3

Veronic pericaria = assay: Herbicidal action (outdoor trials); conditions: 150 g of AS/ha, scored approx. 4-6 weeks after application
Description: as §1, §2, §3

Summer wheat = assay: Crop damage in outdoor trials; conditions: 30 g of AS/ha, scored approx. 4-6 weeks after application
Description: as §1, §2, §3

Polygonum convolvulus = assay: Herbicidal action (outdoor trials); conditions: 30 g of AS/ha, scored approx. 4-6 weeks after application
Description: as §1, §2, §3

Physalis spp. = assay: Herbicidal action (outdoor trials); conditions: 30 g of AS/ha, scored approx. 4-6 weeks after application
Description: as §1, §2, §3

Aspera spica venti = assay: Herbicidal action (outdoor trials); conditions: 30 g of AS/ha, scored approx. 4-6 weeks after application
Description: as §1, §2, §3

Brassica naupus = assay: Herbicidal action (outdoor trials); conditions: 30 g of AS/ha, scored approx. 4-6 weeks after application
Description: as §1, §2, §3

Cc1cc(Cl)ccc1OCC(=O)O [C), (4-chloro-2-methylphenoxy)acetic acid]
Wheat wheat % damage (Wheat): 0% | Avena ludoviciana % activity (Avena ludoviciana): 0%

COc1nc(C)nc(NC(=O)NS(=O)(=O)c2ccccc2OCCCl)n1 [D), 1-[2-(2-chloroethoxy)phenylsulfonyl]-3-(4-methoxy-6-methyl-1,3,5-triazin-2-yl)urea]
Winter wheat % damage (Winter wheat; 15 g of AS/ha, outdoor, scored approx. 4-6 weeks after application, trial with Papaver rhoeas): 0% | Papaver rhoeas % activity (Papaver rhoeas; 15 g of AS/ha): 65%

N#Cc1cc(Br)c(O)c(Br)c1 [E), 3,5-dibromo-4-hydroxy-benzonitrile]
Winter wheat % damage (Winter wheat; 240 g of AS/ha, outdoor, scored approx. 4-6 weeks after application, trial with Papaver rhoeas): 0% | Papaver rhoeas % activity (Papaver rhoeas; 240 g of AS/ha): 85%

Nc1c(Cl)c(F)nc(OCC(=O)O)c1Cl [I), 4-amino-3,5-dichloro-6-fluoro-2-pyridyloxy acetic acid]
Winter wheat % damage (Winter wheat; in vivo): 1% | Veronic pericaria % activity (Veronic pericaria): 50%

CCOC(=O)[C@@H](C)Oc1ccc(Oc2nc3ccc(Cl)cc3o2)cc1 [J), fenoxaprop-P-ethyl]
Summer wheat % damage (Summer wheat): 0% | Polygonum convolvulus % activity (Polygonum convolvulus): 0% | Physalis spp. % activity (Physalis spp.): 0% | Aspera spica venti % activity (Aspera spica venti): 25% | Brassica naupus % activity (Brassica naupus): 0%
